Publication PMC11054638, “Transport of Non-Steroidal Anti-Inflammatory Drugs across an Oral Mucosa Epithelium In Vitro Model” (Pharmaceutics, 2024)

Experiments:
[1] = tested on: COX-1 and COX-2 protein in TR146 cells; experiment: Western blot for COX-1 and COX-2 after inflammation study; format: cell-based, human; conditions: 48 h treatment
[2] = tested on: TR146 oral mucosa in vitro model; experiment: High-throughput (96.96) qPCR chip, mRNA expression after inflammation studies; format: cell-based, human; conditions: 48 h, normalised to control; mean ± SD
Protocol: ThinCerts® were seeded with cells as described above. […] Three days before the experiments, cell layers and blanks were washed twice on the basolateral compartment with 900 µL cultivation media (DMEM supplemented with 10% Fetal Calf Serum and 1% Penicillin/Streptomycin) to remove anti-inflammatory hydrocortisone residues (a component of media supplement HKGS) and were further cultivated in cultivation media.
Prior to treating cells with prepared DMEM solutions, TEER was measured in cultivation media DMEM supplemented with 1% Penicillin/Streptomycin and 10% Fetal Calf Serum. Subsequently, cell layers and blanks were washed with DMEM (without supplements) twice on the apical and basolateral compartment, followed by TEER measurements in DMEM. Media of cells were replaced with previously prepared DMEM solutions. Control media was applied on the blanks. […] Subsequently, 10 µM carboxyfluorescein was added to the apical DMEM solutions and incubated in the incubator at 37 °C for 2 h. Media were immediately collected and measured for the RFU content using the EnSpire as described above. Afterwards, media were stored at −20 °C until further usage. Two cell-grown ThinCerts^TM of each treatment were pooled as one sample with 350 µL lysis buffer supplemented with 1% ß-mercaptoethanol and stored at −80 °C for RNA isolation.
In short, RNA samples collected at the 48-hour timepoint of the inflammation studies and generated by pooling two cell-grown inserts were tested as duplicates on the expression of 95 markers and 1 negative control (H2O). The mRNA samples were amplified with three different primer pools containing 54 primers (PPIA, ACTB, GAPDH, B2M, CLDN1, CLDN2, CLDN3, CLDN4, CLDN5, CLDN6, CLDN7, CLDN8, CLDN9, CLDN10tva, […]
MARVELD2, ZO-1, ZO-2, ZO-3, SLC2A1, SLC7A1, SLC7A5, SLC16A1, ABCB1, ABCC1, ABCC2, ABCC3, ABCC4, ABCC5, ABCG2, INSR, LRP1, TFRC, VEGF-A, CDH5, VWF), 32 primers (CK1, CK4, […]
Quality control of generated data excluded Ct measured outside of the marker’s melting temperature ± 1.5 °C. To calculate the relative expression for each marker, the relative quantitative value was first calculated by subtracting the mean Ct values of control samples from the Ct values of treated samples and potentiating the resulting ΔCt by the power of 2 (=2ΔCt). The geometric mean of housekeeping genes […]
the relative quantitative value of each marker was divided by the calculated geometric mean of housekeeping genes of the respective sample. Subsequent expression values of treated samples were […]
Tested RNA samples were collected after three independent experiments with 4 treatment groups (Control, INF, INF+Ibu, Ibu) per experiment (N=12). Statistical analysis was performed as two-way ANOVA with post hoc Holm–Sidak test with *p<0.05, **p<0.01, ***p<0.001 and […]

PC3 cells = conditions: 1500 µM for 24 h ref 60; cited from earlier work
in vitro = conditions: human, not told, permeability coefficient, without probenecid

CC(C)Cc1ccc(C(C)C(=O)O)cc1 (centres unmarked) [ibuprofen]
COX-2 protein expression [1]: no up-regulation of COX-2 | ABCB1 mRNA expression [2]: 1.01± 0.04 n-fold | ABCC1 mRNA expression [2]: 1.26± 0.46 n-fold | ABCC2 mRNA expression [2]: 0.7± 0.65 n-fold | ABCC3 mRNA expression [2]: 0.97± 1.21 n-fold | ABCC4 mRNA expression [2]: 1.46± 0.5 n-fold | ABCC5 mRNA expression [2]: 0.69± 0.34 n-fold | ABCG2 mRNA expression [2]: 0.87± 1.23 n-fold | AMY mRNA expression [2]: 0.38± 0.43 n-fold | AQP1 mRNA expression [2]: 0.34± 0.19 n-fold | AQP3 mRNA expression [2]: 0.76± 0.67 n-fold | AQP5 mRNA expression [2]: 1.57± 1.16 n-fold | AQP9 mRNA expression [2]: 0.93± 0.04 n-fold | AQP10 mRNA expression [2]: 1.38± 0.72 n-fold | AQP11 mRNA expression [2]: 0.66 ± 0.07 n-fold | CDH1 mRNA expression [2]: 0.93± 0.62 n-fold | CK1 mRNA expression [2]: 11.98± 16.81 n-fold | CK4 mRNA expression [2]: 1.53± 1.73 n-fold | CK5 mRNA expression [2]: 0.27± 0.28 n-fold | CK7 mRNA expression [2]: 3.07± 2.11 n-fold | CK8 mRNA expression [2]: 0.92± 0.68 n-fold | CK10 mRNA expression [2]: 1.63± 2.38 n-fold | CK13tv1 mRNA expression [2]: 1.34± 0.93 n-fold | CK14 mRNA expression [2]: 1.53± 0.93 n-fold | CK18 mRNA expression [2]: 0.79± 0.85 n-fold | CK19 mRNA expression [2]: 1.53± 0.26 n-fold | CLDN1 mRNA expression [2]: 0.52± 0.71 n-fold | CLDN2 mRNA expression [2]: 5.02 n-fold | CLDN3 mRNA expression [2]: 1.95 n-fold | CLDN4 mRNA expression [2]: 0.74± 1.1 n-fold | CLDN5 mRNA expression [2]: 7.17± 10.76 n-fold | CLDN6 mRNA expression [2]: 1.83± 0.78 n-fold | CLDN7 mRNA expression [2]: 0.51± 0.72 n-fold | CLDN8 mRNA expression [2]: 0.49± 0.46 n-fold | CLDN9 mRNA expression [2]: 1.07± 1.46 n-fold | CLDN10tva mRNA expression [2]: 1.49± 2.21 n-fold | CLDN11 mRNA expression [2]: 0.6± 0.1 n-fold | CLDN12tv1 mRNA expression [2]: 0.73± 0.3 n-fold | CLDN12tv2 mRNA expression [2]: 0.47± 0.35 n-fold | CLDN12tv3 mRNA expression [2]: 0.79± 0.25 n-fold | CLDN14 mRNA expression [2]: 1.51 n-fold | CLDN15 mRNA expression [2]: 0.98± 0.96 n-fold | CLDN16 mRNA expression [2]: 1.79± 1.1 n-fold | CLDN17 mRNA expression [2]: 1.66± 1.15 n-fold | CLDN18tv2a mRNA expression [2]: 6.08± 8.62 n-fold | CLDN21 mRNA expression [2]: 1.29 n-fold | CLDN22 mRNA expression [2]: 0.4± 0.53 n-fold | CLDN24 mRNA expression [2]: 0.62 n-fold | CLDN25tv1-4 mRNA expression [2]: 0.65± 0.77 n-fold | CLDN25tv7 mRNA expression [2]: 1.34± 0.38 n-fold | CLDN27 mRNA expression [2]: 0.26 n-fold | DSG3 mRNA expression [2]: 0.83± 0.85 n-fold | INSR mRNA expression [2]: 0.52± 0.39 n-fold | JAM1 mRNA expression [2]: 0.5± 0.67 n-fold | JAM2 mRNA expression [2]: 0.55 n-fold | LOR mRNA expression [2]: 2.69± 2.89 n-fold | LRP1 mRNA expression [2]: 0.68± 0.36 n-fold | MARVELD2 mRNA expression [2]: 2.92± 1.97 n-fold | MFSD2A mRNA expression [2]: 0.85± 0.6 n-fold | MUC1A mRNA expression [2]: 0.53± 0.42 n-fold | MUC1B mRNA expression [2]: 0.81± 0.36 n-fold | MUC3A mRNA expression [2]: 2.34± 2.52 n-fold | MUC5AC mRNA expression [2]: 0.76± 0.17 n-fold | MUC15tv2 mRNA expression [2]: 0.46± 0.21 n-fold | MUC18 mRNA expression [2]: 0.89± 0.56 n-fold | MUC20 mRNA expression [2]: 1.43± 0.61 n-fold | OCLN mRNA expression [2]: 1.16± 1.05 n-fold | PECAM1 mRNA expression [2]: 0.77 n-fold | SLC2A1 mRNA expression [2]: 0.4± 0.26 n-fold | SLC7A1 mRNA expression [2]: 0.54± 0.49 n-fold | SLC7A5 mRNA expression [2]: 0.56± 0.91 n-fold | SLC16A1 mRNA expression [2]: 0.32± 0.48 n-fold | TFRC mRNA expression [2]: 0.79± 0.87 n-fold | VEGF-A mRNA expression [2]: 0.5± 0.27 n-fold | VIM mRNA expression [2]: 0.56± 0.52 n-fold | VWF mRNA expression [2]: 1.28 n-fold | ZO-1 mRNA expression [2]: 0.91± 0.81 n-fold | ZO-2 mRNA expression [2]: 1.26± 0.5 n-fold | ZO-3 mRNA expression [2]: 0.51± 0.84 n-fold | COX-2 expression (PC3 cells): upregulation of COX-2 | Papp A→B at 4 h (in vitro; cell layers pre-treated with cytokines 48 h, 4 h transport): 33.4 ×10⁻⁶ cm/s | Papp A→B at 4 h (in vitro; cell layers pre-treated with cytokines plus ibuprofen 48 h, 4 h transport): 35.1 ×10⁻⁶ cm/s | Papp A→B at 4 h (in vitro; control cell layers, 4 h transport after 48 h): 24 ×10⁻⁶ cm/s
